Data reported in ChEMBL document CHEMBL6177973, “A Novel Compound 3a-M1, from Metabolites of Sinomenine Derivative 3a, Exerts Potent Anti-Aplastic Anemia Activity via IP3R/ORAI-Mediated CTL Ferroptosis” (J Med Chem, 2025).
Calls of active or inactive are those of the source. No cut-off for these calls is given here.

Tests used:
[1] = Drug metabolism in Sprague-Dawley rat plasma assessed as (4bR,9S)-1-(hydroxymethyl)-3,7-dimethoxy-11-methyl-6-oxo-6,8a,9,10-tetrahydro-5H-9,4b-(epiminoethano)phenanthren-4-yl cinnamate metabolite formation at 5 mg/kg, iv measured for 24 hrs by HPLC analysis; type: ADME, organism-based; conditions: in vivo
[2] = Drug metabolism in mouse kidney assessed as (4bR,9S)-1-(hydroxymethyl)-3,7-dimethoxy-11-methyl-6-oxo-6,8a,9,10-tetrahydro-5H-9,4b-(epiminoethano)phenanthren-4-yl cinnamate metabolite formation at 50 mg/kg, po measured for 0.083 to 8 hrs by HPLC analysis; type: ADME, organism-based; conditions: in vivo, time 0.083-8 hrs
[3] = Stability in mouse small intestine assessed as compound remaining at 50 mg/kg, po measured for 0.083 to 8 hrs by HPLC analysis; type: ADME, organism-based; conditions: in vivo, time 0.083-8 hrs
[4] = Drug metabolism in rat plasma assessed as hydrolyzation/demethylation/hydroxylation-mediated metabolite formation at 50 mg/kg, po measured for 24 hrs by HRMS analysis; type: ADME, organism-based; conditions: in vivo
[5] = Drug metabolism in mouse kidney assessed as cinnamic acid metabolite formation at 50 mg/kg, po measured for 0.083 to 8 hrs by HPLC analysis; type: ADME, organism-based; conditions: in vivo, time 0.083-8 hrs
[6] = Stability in rat plasma at 50 mg/kg, po measured for 24 hrs by HPLC analysis; type: ADME, organism-based; conditions: in vivo
[7] = Stability in rat plasma at 37 degreeC; type: ADME, cell-free
[8] = Drug metabolism in mouse spleen assessed as cinnamic acid metabolite formation at 50 mg/kg, po measured for 0.083 to 8 hrs by HPLC analysis; type: ADME, organism-based; conditions: in vivo, time 0.083-8 hrs
[9] = Drug metabolism in mouse bone marrow assessed as (4bR,9S)-1-(hydroxymethyl)-3,7-dimethoxy-11-methyl-6-oxo-6,8a,9,10-tetrahydro-5H-9,4b-(epiminoethano)phenanthren-4-yl cinnamate metabolite formation at 50 mg/kg, po measured for 0.083 to 8 hrs by HPLC analysis; type: ADME, organism-based; conditions: in vivo, time 0.083-8 hrs
[10] = Stability in mouse spleen assessed as compound remaining at 50 mg/kg, po measured for 0.083 to 8 hrs by HPLC analysis; type: ADME, organism-based; conditions: in vivo, time 0.083-8 hrs
[11] = Drug metabolism in Sprague-Dawley rat plasma assessed as (4bR,9S)-1-(hydroxymethyl)-3,7-dimethoxy-11-methyl-6-oxo-6,8a,9,10-tetrahydro-5H-9,4b-(epiminoethano)phenanthren-4-yl cinnamate metabolite formation at 50 mg/kg, po measured for 24 hrs by HPLC analysis; type: ADME, organism-based; conditions: in vivo
[12] = Drug metabolism in mouse liver assessed as cinnamic acid metabolite formation at 50 mg/kg, po measured for 0.083 to 8 hrs by HPLC analysis; type: ADME, organism-based; conditions: in vivo, time 0.083-8 hrs
[13] = Drug metabolism in mouse plasma assessed as cinnamic acid metabolite formation administered orally by HRMS analysis; type: ADME; conditions: po
[14] = Drug metabolism in rat plasma assessed as double hydrolyzation/hydroxylation-mediated metabolite formation at 50 mg/kg, po measured for 24 hrs by HRMS analysis; type: ADME, organism-based; conditions: in vivo
[15] = Drug metabolism in rat plasma assessed as double hydrolyzation/demethylation-mediated metabolite formation at 50 mg/kg, po measured for 24 hrs by HRMS analysis; type: ADME, organism-based; conditions: in vivo
[16] = Drug metabolism in rat plasma assessed as hydrolyzation/hydroxylation-mediated metabolite formation at 50 mg/kg, po measured for 24 hrs by HRMS analysis; type: ADME, organism-based; conditions: in vivo
[17] = Induction of ferroptosis in mouse CTLL-2 cells assessed as increase in intracellular Ca2+ concentration incubated for 45 mins by Fluo-4 AM dye based analysis; type: functional, cell-based; conditions: CTLL-2, 0.75 h
Mus musculus [18] = experiment: Anti-aplastic anemia activity in C57BL/6J mouse model of immune-mediated bone marrow failure assessed as CD4+ T cells at 10 mg/kg, IG qd treated for 12 days by flow cytometry (reference value: 12.93 %); type: functional; conditions: time 12 day
Mus musculus [19] = experiment: Anti-aplastic anemia activity in C57BL/6J mouse model of immune-mediated bone marrow failure assessed as restoration of naive CD8+ T cells at 5 to 15 mg/kg, IG qd treated for 12 days by flow cytometry; type: functional, organism-based; conditions: dose 5-15 mg/kg, time 12.0 day
Mus musculus [20] = experiment: Anti-aplastic anemia activity in C57BL/6J mouse model of immune-mediated bone marrow failure assessed as increase in peripheral red blood cells treated intragastrically once daily for 21 days; type: functional, organism-based; conditions: dose 5-15 mg/kg, route ig, time 21.0 day
Mus musculus [21] = experiment: Anti-aplastic anemia activity in BALB/c mouse model of immune-mediated bone marrow failure assessed as increase in body weight at 10 mg/kg, po treated for 14 days; type: functional, organism-based; conditions: time 14.0 day
CTLL-2 [22] = experiment: Induction of ferroptosis in mouse CTLL-2 cells assessed as increase in ROS level at 10 uM incubated for 45 mins in presence of 2-APB; type: functional, cell-based
CTLL-2 [23] = experiment: Induction of ferroptosis in mouse CTLL-2 cells assessed as increase in p-p38 level at 7.5 to 30 uM incubated for 16 hrs by Western blot analysis; type: functional, cell-based; conditions: dose 7.5-30 µM
Mus musculus [24] = experiment: Anti-aplastic anemia activity in C57BL/6J mouse model of immune-mediated bone marrow failure assessed as reduction in proportion of effector CD8+ T cells at 5 to 15 mg/kg, IG qd treated for 12 days by flow cytometry; type: functional, organism-based; conditions: dose 5-15 mg/kg, time 12.0 day
Mus musculus [25] = experiment: Anti-aplastic anemia activity in C57BL/6J mouse model of immune-mediated bone marrow failure assessed as CD4+ T cells at 15 mg/kg, IG qd treated for 12 days by flow cytometry (reference value: 12.93 %); type: functional; conditions: time 12 day
CTLL-2 [26] = experiment: Induction of ferroptosis in mouse CTLL-2 cells assessed as increase in intracellular Ca2+ concentration at 10 uM incubated for 45 mins in presence of 2-APB by Fluo-4 AM dye based analysis; type: functional, cell-based
CD8-positive T cell [27] = experiment: Inhibition of CD3/CD28-activated CD8-positive T cell activation in BALB/c mouse lymph nodes assessed as decrease in cluster formation of cells at 1 to 10 uM incubated for 72 hrs by microscopy; type: functional, cell-based; conditions: Lymph node, dose 1-10 µM
IEC-6 = experiment: Cytotoxicity against rat IEC-6 cells assessed as inhibition of cell viability incubated for 72 hrs by CCK8 assay; type: functional, cell-based; conditions: IEC-6, 72 h
CD8-positive T cell [28] = experiment: Inhibition of CD3/CD28-activated CD8-positive T cell proliferation in BALB/c mouse lymph nodes incubated for 72 hrs by CFSE staining based flow cytometry; type: functional, tissue-based; conditions: Lymph node, dose 1-10 µM
HepG2 = experiment: Cytotoxicity against human HepG2 cells assessed as inhibition of cell viability incubated for 72 hrs by CCK8 assay; type: functional, cell-based; conditions: HepG2, 72 h
THP-1 = experiment: Cytotoxicity against human THP-1 cells assessed as inhibition of cell viability incubated for 72 hrs by CCK8 assay; type: functional, cell-based; conditions: THP-1, 72 h
CTLL-2 [29] = experiment: Induction of ferroptosis in mouse CTLL-2 cells assessed as increase in intracellular Ca2+ concentration at 10 uM incubated for 60 mins in presence of EDTA by Fluo-4 AM dye based analysis; type: functional, cell-based
Mus musculus [30] = experiment: Anti-aplastic anemia activity in C57BL/6J mouse model of immune-mediated bone marrow failure assessed as increase in hemoglobin level treated intragastrically once daily for 21 days; type: functional, organism-based; conditions: dose 5-15 mg/kg, route ig, time 21.0 day
[31] = Acute toxicity in 12 hr-fasted KM mouse assessed as animal survival at 10 g/kg, po administered as single dose measured for 14 days; type: organism-based; conditions: in vivo, 10000 mg/kg, 336 h, time 14 day

Which Drug metabolism [1] does the source give for `COC1=C[C@@H]2[C@@H]3Cc4c(COC(=O)/C=C/c5ccccc5)cc(OC)c(OC(=O)/C=C/c5ccccc5)c4[C@]2(CCN3C)CC1=O` here?
The Drug metabolism was “metabolite_detected”.

What about the Drug metabolism [2] of the same compound?
The Drug metabolism was “metabolite_detected”.

What about the Stability [3] of the same compound?
Its Stability is “Stable”.

And the Drug metabolism [4]?
Its Drug metabolism is “metabolite_detected”.

And the Drug metabolism [5]?
The Drug metabolism was “metabolite_detected”.

What about the Stability [6] of the same compound?
The Stability was “Unstable”.

And the Stability [7]?
Its Stability is “Unstable”.

And the Drug metabolism [8]?
Its Drug metabolism is “metabolite_detected”.

And the Drug metabolism [9]?
Its Drug metabolism is “metabolite_detected”.

What about the Stability [10] of the same compound?
The Stability was “Unstable”.

What about the Drug metabolism [11] of the same compound?
The Drug metabolism was “metabolite_detected”.

What about the Drug metabolism [12] of the same compound?
Its Drug metabolism is “metabolite_detected”.

And the Drug metabolism [13]?
The Drug metabolism was “metabolite_detected”.

What about the Drug metabolism [14] of the same compound?
Its Drug metabolism is “metabolite_detected”.

And the Drug metabolism [15]?
The Drug metabolism was “metabolite_detected”.

What about the Drug metabolism [16] of the same compound?
The Drug metabolism was “metabolite_detected”.

What does the source list for `COC1=C[C@@H]2[C@@H]3Cc4c(CO)cc(OC)c(OC(=O)/C=C/c5ccccc5)c4[C@]2(CCN3C)CC1=O`?
EC50 [17]: 10.1 µM; Activity (Mus musculus [18]): 21.08%; Activity (Mus musculus [19]): Active; Partial Restoration Of Naive Cd8+ T Cells Was Observed; Activity (Mus musculus [20]): Dose-dependent-effect; Activity (Mus musculus [21]): Active; Activity (CTLL-2 [22]): inactive; Activity (CTLL-2 [23]): Active; Activity (Mus musculus [24]): Active; Activity (Mus musculus [25]): 37.87%; Activity (CTLL-2 [26]): inactive; inhibition (CD8-positive T cell [27]): Active; IC50 (IEC-6): 84.3 µM; inhibition (CD8-positive T cell [28]): Dose-dependent-effect; IC50 (HepG2): 492 µM; IC50 (THP-1): 125 µM; Activity (CTLL-2 [29]): Active; Activity (Mus musculus [30]): Dose-dependent-effect; Activity [31]: Non-toxic
